# ChEMBL document CHEMBL5523676, “Design, synthesis, and anti-cancer evaluation of C-14 arylcarbamate derivatives of andrographolide” (Bioorg Med Chem, 2024)
# Active and inactive are the calls of the source. The rule behind the calls is not given here.
# Experiments:
# [1] = test system: PANC-1; test: Antiproliferative activity against human PANC-1 cells assessed as inhibition of cell growth measured after 48 hrs by MTT assay; assay type: functional, cell-based; settings: PANC-1, 48 h
# [2] = test system: PANC-1; test: Inhibition of p53 R273H mutant protein level in human PANC-1 cells at 10 uM measured after 24 hrs by Western blot analysis; assay type: functional, cell-based
# [3] = test system: MIA PaCa-2; test: Antiproliferative activity against human MIA PaCa-2 cells assessed as inhibition of cell growth measured after 48 hrs by MTT assay; assay type: functional, cell-based; settings: MIA PaCa-2, 48 h
# [4] = test system: MIA PaCa-2; test: Inhibition of p53 […] mutant protein level in human MIA PaCa-2 cells at 20 uM measured after 24 hrs by Western blot analysis; assay type: functional, cell-based
# [5] = test system: MIA PaCa-2; test: Antiproliferative activity against human MIA PaCa-2 cells assessed as suppression of cell growth at 30 uM measured after 48 hrs by MTT assay; assay type: functional, cell-based
# [6] = Antiproliferative activity against human HPDE cells assessed as inhibition of cell growth measured after 48 hrs by MTT assay; assay type: toxicity, cell-based
# [7] = Antiproliferative activity against human HEK293 cells assessed as inhibition of cell growth measured after 48 hrs by MTT assay; assay type: toxicity, cell-based
# [8] = Antiproliferative activity against human IMR-90 cells assessed as inhibition of cell growth measured after 48 hrs by MTT assay; assay type: toxicity, cell-based
# [9] = test system: PANC-1; test: Inhibition of cell migration in human PANC-1 cells at 10 uM incubated for 12 hrs by crystal violet staining based microscopic analysis; assay type: functional
# [10] = test system: PANC-1; test: Antiproliferative activity against human PANC-1 cells assessed as inhibition of cell growth at upto 20 uM measured after 12 hrs by MTT assay; assay type: functional, cell-based
# [11] = test system: MIA PaCa-2; test: Inhibition of cell migration in human MIA PaCa-2 cells at 10 uM incubated for 24 hrs by crystal violet staining based microscopic analysis; assay type: functional
# [12] = test system: PANC-1; test: Inhibition of colony formation in human PANC-1 cells assessed as decrease in colony numbers measured after 24 hrs by crystal violet staining based analysis; assay type: functional, cell-based; settings: dose 1-30 µM
# [13] = test system: MIA PaCa-2; test: Inhibition of colony formation in human MIA PaCa-2 cells at 1 to 30 uM measured after 24 hrs by crystal violet staining based analysis; assay type: functional, cell-based; settings: dose 1-30 µM
# [14] = test system: PANC-1; test: Inhibition of p53 R273H protein level in human PANC-1 cells at 15 uM measured after 24 hrs by Western blot analysis; assay type: functional, cell-based
structure (smiles),measurement,setting,value
C=C1CC[C@@H]2[C@]3(C)COC(C)(C)O[C@@H]3CC[C@@]2(C)[C@@H]1C/C=C1/C(=O)OC[C@H]1OC(=O)Nc1cccc(C(C)=O)c1,IC50,[1],10.9 µM
same,inhibition,[2],Active
same,IC50,[3],> 30 µM
same,inhibition,[4],Active
C=C1CC[C@@H]2[C@]3(C)COC(C)(C)O[C@@H]3CC[C@@]2(C)[C@@H]1C/C=C1/C(=O)OC[C@H]1OC(=O)Nc1ccc(F)cc1F,IC50,[1],> 30 µM
same,Activity,[5],Active
C=C1CC[C@@H]2[C@]3(C)COC(C)(C)O[C@@H]3CC[C@@]2(C)[C@@H]1C/C=C1/C(=O)OC[C@H]1OC(=O)Nc1ccccc1,IC50,[1],9.56 µM
same,IC50 at 48 h,[6],> 30 µM
same,IC50 at 48 h,[7],> 30 µM
same,IC50 at 48 h,[8],> 30 µM
same,inhibition,[2],Active
same,IC50,[3],25.7 µM
same,Activity,[5],Active
same,inhibition,[4],Active
same,inhibition,[9],Active
same,Activity,[10],inactive
same,inhibition,[11],Active
same,inhibition,[12],Dose-Dependent Effect
same,inhibition,[13],Active
C=C1CC[C@@H]2[C@]3(C)COC(C)(C)O[C@@H]3CC[C@@]2(C)[C@@H]1C/C=C1/C(=O)OC[C@H]1OC(=O)Nc1cccc(OC)c1,IC50,[1],10.8 µM
C=C1CC[C@@H]2[C@]3(C)COC(C)(C)O[C@@H]3CC[C@@]2(C)[C@@H]1C/C=C1/C(=O)OC[C@H]1OC(=O)Nc1cccc(Br)c1,IC50,[1],16 µM
C=C1CC[C@@H]2[C@]3(C)COC(C)(C)O[C@@H]3CC[C@@]2(C)[C@@H]1C/C=C1/C(=O)OC[C@H]1OC(=O)Nc1ccc([N+](=O)[O-])cc1,IC50,[1],13.6 µM
C=C1CC[C@@H]2[C@]3(C)COC(C)(C)O[C@@H]3CC[C@@]2(C)[C@@H]1C/C=C1/C(=O)OC[C@H]1OC(=O)Nc1cccc(C#N)c1,IC50,[1],15.2 µM
same,inhibition,[14],Active
C=C1CC[C@@H]2[C@]3(C)COC(C)(C)O[C@@H]3CC[C@@]2(C)[C@@H]1C/C=C1/C(=O)OC[C@H]1OC(=O)Nc1cc(C)cc(C)c1,IC50,[1],> 30 µM
C=C1CC[C@@H]2[C@]3(C)COC(C)(C)O[C@@H]3CC[C@@]2(C)[C@@H]1C/C=C1/C(=O)OC[C@H]1OC(=O)Nc1ccc(Cl)cc1,IC50,[1],29.1 µM
C=C1CC[C@@H]2[C@]3(C)COC(C)(C)O[C@@H]3CC[C@@]2(C)[C@@H]1C/C=C1/C(=O)OC[C@H]1OC(=O)Nc1cc(F)ccc1F,IC50,[1],15.1 µM
same,inhibition,[14],Active
same,IC50,[3],> 30 µM
C=C1CC[C@@H]2[C@]3(C)COC(C)(C)O[C@@H]3CC[C@@]2(C)[C@@H]1C/C=C1/C(=O)OC[C@H]1OC(=O)Nc1ccc(Br)cc1,IC50,[1],10.2 µM
same,IC50,[3],> 30 µM
C=C1CC[C@@H]2[C@]3(C)COC(C)(C)O[C@@H]3CC[C@@]2(C)[C@@H]1C/C=C1/C(=O)OC[C@H]1OC(=O)Nc1cccc(C(F)(F)F)c1,IC50,[1],> 30 µM
C=C1CC[C@@H]2[C@](C)(CO)[C@H](O)CC[C@@]2(C)[C@@H]1C/C=C1/C(=O)OC[C@H]1O [ANDROGRAPHOLIDE],IC50,[1],20.4 µM
same,IC50,[3],21.1 µM
same,Activity,[5],Active
same,inhibition,[9],Active
same,Activity,[10],inactive
same,inhibition,[12],Dose-Dependent Effect
C=C1CC[C@@H]2[C@]3(C)COC(C)(C)O[C@@H]3CC[C@@]2(C)[C@@H]1C/C=C1/C(=O)OC[C@H]1OC(=O)Nc1ccc(NC(C)=O)cc1,IC50,[1],> 30 µM
